Data reported in patent publication US12544463B2, “Deuterium substituted positron emission tomography (PET) imaging agents and their pharmacological application” (Five Eleven Pharma Inc., priority 2017, dated 2026).
Blank lines part the entries; values can stand above or below the compound they belong to.

Tests used:
[1] = molecular target: T1, serotonin transporters (SERT) (Rattus norvegicus, UniProt P31652); assay: In vitro binding assay, LLC-SERT membrane homogenates, [^125I]IDAM; details: 0.2 nM [^125I]IDAM, LLC-SERT membranes; read-out: Ki (SERT binding affinity) (converted)
T1 construct: expressed in transfected cells; host or cells: LLC-PK1 (LLC-SERT)
T1 sequence (P31652 whole entry): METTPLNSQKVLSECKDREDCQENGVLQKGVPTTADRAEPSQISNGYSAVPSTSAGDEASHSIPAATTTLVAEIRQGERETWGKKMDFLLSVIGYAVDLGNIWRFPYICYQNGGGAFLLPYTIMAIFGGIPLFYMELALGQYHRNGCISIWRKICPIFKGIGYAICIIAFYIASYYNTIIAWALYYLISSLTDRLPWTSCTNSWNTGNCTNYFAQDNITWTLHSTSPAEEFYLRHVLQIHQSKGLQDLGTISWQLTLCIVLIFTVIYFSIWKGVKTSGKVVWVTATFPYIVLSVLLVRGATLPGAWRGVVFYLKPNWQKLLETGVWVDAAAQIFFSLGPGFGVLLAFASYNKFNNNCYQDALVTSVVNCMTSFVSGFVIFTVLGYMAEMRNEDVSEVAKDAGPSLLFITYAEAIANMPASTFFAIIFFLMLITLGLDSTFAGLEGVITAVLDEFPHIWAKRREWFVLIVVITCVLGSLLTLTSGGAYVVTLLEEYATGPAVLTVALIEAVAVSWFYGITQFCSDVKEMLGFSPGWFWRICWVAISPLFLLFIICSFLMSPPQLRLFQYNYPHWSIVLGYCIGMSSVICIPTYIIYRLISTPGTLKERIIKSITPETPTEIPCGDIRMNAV
Experimental: The membrane homogenates of serotonin transporters (LLC-SERT, which were expressed in a common parental cell line LLC-PK1) were prepared and used for the binding assays. Competitive binding assays were performed in a final volume of 0.25 mL. […] Nonspecific binding was defined with 10 μM citalopram. Incubation was carried out for 60 min at room temperature and the bound ligand was collected on glass fiber filters presoaked with 1% polyethylenimine (SIGMA, St. Louis, MO) and counted in a gamma counter (Wizard^2, Perkin Elmer).

[2] = Biodistribution study in mice; type: in vivo; details: for Biodistribution Blood / Biodistribution Bone / Biodistribution Brain / Biodistribution Heart / Biodistribution Kidney / Biodistribution Liver / Biodistribution Lung / Biodistribution Muscle / Biodistribution Pancreas / Biodistribution Skin / Biodistribution Spleen: normal male mice
Experimental: Three mice per group were used for biodistribution study. While under isoflurane anesthesia, 0.1 mL of a saline solution containing radioactive tracer was injected into tail vein. The mice were sacrificed at the time indicated by cardiac excision while under isoflurane anesthesia. Organs of interest were removed and weighed, and the radioactivity was counted. The percent dose per organ was calculated by comparing the tissue counts to counts of 1% of the initial dose (100 times diluted aliquots of the injected material) measured at the same time.

- Ki [1]: 0.022 ± 0.016 nM
Structure (SMILES): CN(C)Cc1cc(OCCCF)ccc1Sc1ccc(F)cc1N

- Ki [1]: 0.024 nM
Structure (SMILES): [2H]C([2H])(F)C([2H])([2H])C([2H])([2H])Oc1ccc(Sc2ccc(F)cc2N)c(CN(C)C)c1 [III-4-27]

- Ki [1]: 0.021 nM
Structure (SMILES): [2H]C([2H])(F)C([2H])([2H])C([2H])([2H])Oc1ccc(Sc2ccc(Br)cc2N)c(CN(C)C)c1 [III-4-26]

- Ki [1]: 0.02 nM
Structure (SMILES): CN(C)Cc1cc(O)ccc1Sc1ccc(Br)cc1N [III-4-18]

- Ki [1]: 0.052 ± 0.007 nM
Structure (SMILES): CN(C)Cc1cc(OCCCF)ccc1Sc1ccccc1N [III-1 (FPBM), reference compound]

Further lines, the compound ahead of its results:

Structure (SMILES): [2H]C([2H])([2H])Nc1ccc(/C=C/c2ccc(OCCOCCOCC[18F])nc2)cc1 [^18F-AV-45-D3 (IIa1)]
- brain uptake ([2]; mice, after i.v. injection): excellent brain uptake comparable to that observed to ^18F-AV-45
- Biodistribution Blood ([2]; 2 min): 2.16 ± 0.05 % Dose/g
- Biodistribution Bone ([2]; 2 min): 1.74 ± 0.18 % Dose/g
- Biodistribution Brain ([2]; 2 min): 6.26 ± 0.23 % Dose/g
- Biodistribution Heart ([2]; 2 min): 5.08 ± 0.39 % Dose/g
- Biodistribution Kidney ([2]; 2 min): 9.51 ± 0.80 % Dose/g
- Biodistribution Liver ([2]; 2 min): 12.0 ± 0.70 % Dose/g
- Biodistribution Lung ([2]; 2 min): 4.88 ± 0.16 % Dose/g
- Biodistribution Muscle ([2]; 2 min): 3.21 ± 0.14 % Dose/g
- Biodistribution Pancreas ([2]; 2 min): 4.94 ± 0.77 % Dose/g
- Biodistribution Skin ([2]; 2 min): 1.24 ± 0.27 % Dose/g
- Biodistribution Spleen ([2]; 2 min): 2.50 ± 0.12 % Dose/g
- Biodistribution Blood ([2]; 30 min): 2.93 ± 0.27 % Dose/g
- Biodistribution Bone ([2]; 30 min): 2.24 ± 0.44 % Dose/g
- Biodistribution Brain ([2]; 30 min): 1.71 ± 0.37 % Dose/g
- Biodistribution Heart ([2]; 30 min): 2.40 ± 0.39 % Dose/g
- Biodistribution Kidney ([2]; 30 min): 6.41 ± 1.86 % Dose/g
- Biodistribution Liver ([2]; 30 min): 12.0 ± 0.71 % Dose/g
- Biodistribution Lung ([2]; 30 min): 2.90 ± 0.47 % Dose/g
- Biodistribution Muscle ([2]; 30 min): 1.79 ± 0.06 % Dose/g
- Biodistribution Pancreas ([2]; 30 min): 2.05 ± 0.29 % Dose/g
- Biodistribution Skin ([2]; 30 min): 2.07 ± 0.14 % Dose/g
- Biodistribution Spleen ([2]; 30 min): 1.52 ± 0.21 % Dose/g
- Biodistribution Blood ([2]; 60 min): 2.08 ± 0.07 % Dose/g
- Biodistribution Bone ([2]; 60 min): 2.76 ± 0.37 % Dose/g
- Biodistribution Brain ([2]; 60 min): 1.53 ± 0.20 % Dose/g
- Biodistribution Heart ([2]; 60 min): 1.72 ± 0.19 % Dose/g
- Biodistribution Kidney ([2]; 60 min): 3.74 ± 0.47 % Dose/g
- Biodistribution Liver ([2]; 60 min): 8.15 ± 0.75 % Dose/g
- Biodistribution Lung ([2]; 60 min): 1.97 ± 0.25 % Dose/g
- Biodistribution Muscle ([2]; 60 min): 1.20 ± 0.04 % Dose/g
- Biodistribution Pancreas ([2]; 60 min): 1.43 ± 0.20 % Dose/g
- Biodistribution Skin ([2]; 60 min): 1.34 ± 0.07 % Dose/g
- Biodistribution Spleen ([2]; 60 min): 1.22 ± 0.12 % Dose/g
- Biodistribution Blood ([2]; 120 min): 1.36 ± 0.12 % Dose/g
- Biodistribution Bone ([2]; 120 min): 4.41 ± 0.77 % Dose/g
- Biodistribution Brain ([2]; 120 min): 1.26 ± 0.04 % Dose/g
- Biodistribution Heart ([2]; 120 min): 1.18 ± 0.03 % Dose/g
- Biodistribution Kidney ([2]; 120 min): 2.09 ± 0.02 % Dose/g
- Biodistribution Liver ([2]; 120 min): 5.47 ± 0.29 % Dose/g
- Biodistribution Lung ([2]; 120 min): 1.31 ± 0.03 % Dose/g
- Biodistribution Muscle ([2]; 120 min): 0.75 ± 0.07 % Dose/g
- Biodistribution Pancreas ([2]; 120 min): 0.87 ± 0.15 % Dose/g
- Biodistribution Skin ([2]; 120 min): 0.91 ± 0.13 % Dose/g
- Biodistribution Spleen ([2]; 120 min): 0.83 ± 0.07 % Dose/g

Structure (SMILES): [2H]C([2H])([2H])N(Cc1cc(OCCCF)ccc1Sc1ccccc1N)C([2H])([2H])[2H] (single isomer, unassigned) [III-2]
- Ki [1]: 0.032 ± 0.013 nM

Structure (SMILES): NCc1cc(OCCCF)ccc1Sc1ccccc1N [III-5-5]
- Ki [1]: 39.3 ± 11.9 nM

Structure (SMILES): CNCc1cc(OCCCF)ccc1Sc1ccccc1N [III-6-5]
- Ki [1]: 5.26 ± 0.66 nM

Structure (SMILES): [2H]C([2H])([2H])N(Cc1cc(O)ccc1Sc1ccccc1N)C([2H])([2H])[2H] [III-2-4]
- Ki [1]: 2.02 ± 0.54 nM

Structure (SMILES): [2H]C([2H])(F)C([2H])([2H])C([2H])([2H])Oc1ccc(Sc2ccccc2N)c(CN)c1 [III-5-8]
- Ki [1]: 44.9 ± 2.5 nM
